According to patent EP2386565A2, “Compounds and methods to inhibit or augment an inflammatory response” (Cambridge Enterprise Ltd., priority 1999, dated 2000):
Positions of bridges follow the written chain, without caps; N, C: chain ends. Non-standard residues stand in square brackets, D forms with d. Residues, ends and D or L forms follow the SMILES beside them.

Columns and labels:
[1] = Stability against acid hydrolysis; format: physicochemical; conditions: pH 2.0 for 2 hrs at 37°C
Excerpt: For example, to prepare a peptide 3 derivative, peptide 3(3-12)[MCP-1] was modified according to Jameson et al. (Nature, 368, 744 (1994)), which yielded CRD-Cys13Leu4Ile11peptide 3(3-12)[MCP-1] (Figure 3).

LPS-induced serum TNF-α = assay: Endotoxemia model (LPS i.p.); format: in vivo, mice
Protocol: A mouse endotoxemia model is used to screen agents of the invention for in vivo functional anti-inflammatory activity in a rapid manner. Female CD-1 mice are injected i.p. (ventral abdomen) with 583 µg LPS. mRNA and protein levels of TNF-α, IFN-γ, IL-4 and MCP-1 and other markers of the inflammatory response are then determined. Thirty minutes prior to LPS administration, the animals were administered one of three different doses of CRD-Leu4Ile11Cys13peptide 3(3-12)[MCP-1] as an intravenous loading dose and a subcutaneous bolus dose (on dorsum). PBS treated animals with and without LPS administration were positive and negative controls. Two hours later, animals were euthanized and serum collected. Serum was separated from the cell pellet and frozen until ELISA analysis of cytokine levels. Lung and liver samples were collected for mRNA analyses and histopathology. […] Serum levels and mRNA levels of IL-4, IFN-γ and MCP-1 are also determined.
Each animal received a pretreatment (200 ul) by sub-cutaneous injection into the scruff at the back of the neck. All pre-treatment agents were administered at 1 mg per animal (approximately 40-50 mg/kg). After 30-45 minutes, animals in groups 2 through 6 received 750 µg bacterial lipopolysaccharide (LPS) in 300 µl PBS by intraperitoneal injection. Animals in group 1 received PBS vehicle alone.
After 3 hours (2 hours post-LPS), all animals were sacrificed by terminal anaesthesia followed by cardiac puncture. Approximately 1 ml of blood was withdrawn and serum was prepared. Blood was allowed to clot at room temperature for approximately 2 hours, then the clot was spun out and the serum aliquoted and stored at -20°C until tested. Serum from each animal was assayed in duplicate for TNF-α using the Quantikine M kit (R&D Systems) calibrated by interpolation of the standard curve.

α2-adrenoceptors = assay: Competition of 3H-RS-79948-197 binding to membranes; conditions: 100 µM highest concentration tested
Protocol: For α2-adrenoreceptor binding, membranes (A-213, RBI/Sigma)) are diluted into binding buffer (75 mM Tris pH 7.4, 12.5 mM MgCl2 and 2 mM EDTA). For example, 10 µl of membranes are diluted in 500 µl of binding buffer (i.e., 1:50 dilution), which is aliquoted into tubes. Cold competitor or test competitor is added, for example, 5 µl of 1 mM oxymetazoline (O-110, RBI/Sigma, 1 mM stock in MilliQ water). Radioligand is then added (^3H-RS-79948-197, TRK 1036, Amersham, 50 µCi in 250 µl, 2.1 µM at 95 Ci/mmol). For competition studies, 1 nM is used. A 100x stock (i.e., 100 nM) is made by diluting the commercial stock 1:20 in binding buffer, and 5 µl is added to every tube. Control tubes have radioligand but no membranes. The mixtures are vortexed, then spun very briefly. The mixtures are then incubated for 1 hour at 27°C in a water bath. The mixture is filtered through GF/C filters over a vacuum. Each filter is pre-soaked in polyethyleneimine (0.3% in water; add 1 ml of 10% stock (P-261; RBI/Sigma) to 33 ml of MilliQ water). The tubes are washed with 2-3 ml of wash buffer (50 mM Tris pH 7.4) and the wash filtered. The filters are then rinsed with 3 × 5 ml of wash buffer, air dried, placed in a scintillation vial and 4.5 ml of scintillant added. The activity on the filter is then determined.

## CC[C@@H](C)[C@H]1NC(=O)[C@@H](CCC(N)=O)NC(=O)[C@H](N)CSSC[C@H](C(N)=O)NC(=O)[C@@H](CC(C)C)NC(=O)[C@@H](CC(=O)O)NC(=O)[C@H]2CCCN2C(=O)[C@@H](CCCCN)NC(=O)[C@@H](CCC(N)=O)NC(=O)[C@@H](CCCCN)NC(=O)[C@@H](Cc2c[nH]c3ccccc23)NC1=O (H-[dC][dQ][dI][dW][dK][dQ][dK][dP][dD][dL][dC]-NH2; disulfide 1-11)
[1]
  degradation by acid hydrolysis: < 10%
LPS-induced serum TNF-α; mouse, in vivo
  serum MCP-1 and liver MCP-1 RNA after LPS (in words): no modulation
  serum TNF-α after LPS (in words): dose-dependent inhibition
LPS-induced serum TNF-α; mouse, in vivo, listed as CRD-Leu4Ile11Cys13peptide 3(3-12)[MCP-1]
  serum TNF-α after LPS (in words): dose dependent decrease
LPS-induced serum TNF-α; s.c.
  half-maximal dose for inhibition of LPS-stimulated TNF-α: approximately 100 µg per animal
α2-adrenoceptors
  ED50 for competition of RS79943 binding to α2-adrenoceptors: >100 µM
